Where two headings read alike, the source gives them in different places.
Legend:
[1] = 3-NOP pH and temperature stability by HPLC; format: physicochemical; details: 1-month, 4-30C, pH 4-10
Source text: 3-NOP pH and Temperature Stability: Confirmed via HPLC over a 1-month time period at temperature between 4-30C and pH 4-10.

[2] = 3-NOP volatility, mass loss open to air; format: physicochemical; details: 500 mg in 5 dram vial open to air, ~18-24C, 15-30% RH, 6 days
Experimental: 3-NOP Volatility:500 mg of 3-NOP in a 5 dram vial was left open to air at ˜18-24C at 15-30% RH over the course of 6 days. Average mass loss is ˜0.25% per day.

[3] = 3-NOP to adsorbent ratio study; format: physicochemical; details: 24 hr, HPLC
Experimental: Optimal loading of 3-NOP onto adsorbents was determined by varying ratios of 3-NOP to adsorbent. 3-NOP and adsorbent were speed mixed at 2000 rpm for 1 min at the following ratios by weight: 1:1.5, 1:2, 1:2.5. The adsorbed 3-NOP powder mixture was then placed in distilled water at 1% 3-NOP loading. The solution was allowed to equilibrate for 24 hr and then an aliquot was taken for HPLC to determine the reduction in 3-NOP concentration.

rumen methanogens [4] = details: cited from earlier work
rumen methanogens [5] = details: sheep, 0.5 g/day; cited from earlier work
[6] = test system: methane production in ruminants; details: cited from earlier work
rumen methanogens [7] = details: goats, 10 g/day/goat; cited from earlier work
rumen methanogens [8] = details: 3.5 g/L, continuous fermenters with forages as a substrate; cited from earlier work
[9] = test system: Methanobrevibacter ruminantium; experiment: Methane production of methanogen monocultures treated with sera from vaccinated animals; format: cell-based; details: small molecule inhibitor at 3 different concentrations, FIG. 17B
Experimental: Briefly, BY medium is inoculated with a methanogen-of-interest and combined with serum. The culture tube is crimped closed and pressurized with 80% hydrogen, 20% carbon dioxide. The cultures are incubated and methane in measured intermittently using a GazoMat handheld methane monitoring device. Methane is plotted as a function of time for the various treatment groups and the control group.
200 uL of serum from vaccinated animals were added to sterile anaerobic culture tubes. Open plasma containing tubes were placed into an anaerobic chamber containing 95% nitrogen and 5% hydrogen and allowed to stand 1 hr at ambient temperature. A single seeded culture of methanogen (M. gottschalkii or M. ruminantium) was prepared in BY medium at a volume sufficient to distribute 2.5 mL to each plasma sample and control tube. 2.5 mL of methanogen culture was added to each tube containing the serum, a septa was inserted and crimped into place. Sealed tubes were removed from the anaerobic chamber and each was pressurized with 25 PSI 80% H2, 20% CO2 gas via a hypodermic needle through the septum. Tubes were placed into a 38° C. shaking incubator and periodically removed for methane measurements. Methane measurements in the tube headspace were made with a handheld remote methane detector using a jig to hold the instrument and tube during measurement.

rumen Methanobrevibacter = details: 5.6 μmol/L, in vitro; rumen bacteria not inhibited; cited from earlier work

In the case of O=[N+]([O-])OCCCO [3-NOP, 3-nitrooxypropanol], the “pH and Temperature Stability” value [1] is reported as “Confirmed”, the Average mass loss [2] is reported as about 0.25 % per day and the “Average Integrated Area of 3-NOP in solution” value (from here on “Average Integrated Area”) ([3]; 3-NOP:Adsorbent 1:1.5, distilled water at 1% 3-NOP loading) is reported as 2566.4. For the same compound, the “Average Integrated Area” value ([3]; 3-NOP:Adsorbent 1:2, distilled water at 1% 3-NOP loading) was 2566.4, the “Average Integrated Area” value ([3]; 3-NOP:Adsorbent 1:2.5, distilled water at 1% 3-NOP loading) was 2566.4 and the “decrease of CH4 yield” value (rumen methanogens [4]; beef cattle, 2.0 g/day/cow) was 59%. For the same compound, the “persistence of the inhibition” value (rumen methanogens [4]; beef cattle, 2.0 g/day/cow) was “up to 112 days”, the “decrease of CH4 production” value (rumen methanogens [4]; dairy cows, 40-80 mg/kg feed DM, persistently for up to 84 days) was “about 30%” and the “degree of CH4 suppression” value (rumen methanogens [4]; directly added to the rumen through rumen cannula, daily dose 0.50 or 2.5 g per cow) was 7-10%. For the same compound, the “decrease of CH4 production” value (rumen methanogens [5]) was 29%, the “Addition amount; maximum methane suppression amount” value (from here on “Addition amount”) ([6]; 0.08 mg/g dry matter (Alvarez-Hess et al., 2019)) was 0.08 mg/g dry matter; 44% and the “Addition amount” value ([6]; 60 mg/kg of feed dry matter (Melgar et al., 2020)) was 26%/day (Melgar et al., 2020). The “Addition amount” value ([6]; 1.6 g, concentrate pellet (Van Wesemael et al., 2019)) was 23% and the “Addition amount” value ([6]; 1.6 g, roughage (Van Wesemael et al., 2019)) was 28%.

In the case of O=C(O)/C=C/C(=O)O [fumarate], the “decrease of abundance of methanogens and CH4 production” value (rumen methanogens [7]) is listed as 11.9% and the “decrease of CH4 production” value (rumen methanogens [8]) is listed as 38%.

With CCCCCCCCCCCC(=O)O [lauric acid] the methane production rate [9] was “reduction is methane production rate”.

In the case of CC[C@H](C)C(=O)O[C@H]1CCC=C2C=C[C@H](C)[C@H](CC[C@@H]3C[C@@H](O)CC(=O)O3)[C@H]21 [mevastatin], the growth (rumen Methanobrevibacter) is given as “inhibited the growth of all three strains”.

Source: US20240189408A1, “COMPOSITIONS AND METHODS FOR REDUCING METHANE EMISSIONS IN RUMINANT POPULATIONS” (Arkea Bio Corp., priority 2022, published 2024)
